Test system: etoposide-treated IMR-90 cells
Assay: Etoposide-induced senescence model, resazurin cell viability (screen and dose-response)
Type: cell-based, human
Details: etoposide-induced senescence model; ratio of IC50 values between etoposide- and DMSO-treated IMR-90 fibroblasts
Description: Cell culture. Human lung fibroblast (IMR-90) cells were obtained from ATCC (CCL-186) and passaged less than 10 times (less than 30 population doublings) for all experiments described in this example, with the exception of high-passage cells used in the model of replicative senescence (see the section on Replicative senescence below). Cells were cultured in growth media comprising Eagle's Minimum Essential Medium (EMEM: ATCC 30-2003) supplemented with 10% fetal bovine serum (FBS: Thermo Fisher 16140071) and 1% penicillin-streptomycin (Thermo Fisher 15070063). Cells were incubated in a humidity-controlled incubator at 37° C., with 5% CO2. Cells were detached using trypsin-EDTA (0.05%; Gibco 25300120).
Etoposide-induced senescence. IMR-90 cells were cultured as described above. At between 30 to 50% confluence, the media was replaced with complete growth media containing vehicle (0.5% dimethyl sulfoxide: DMSO, MilliporeSigma D5879) or complete growth media containing 50 μM etoposide (prepared as a 1:200 dilution of a 10 mM stock solution in DMSO; etoposide, MilliporeSigma E1383). Cells were treated for 2 days, after which the media was replaced with fresh growth media and cells were allowed to recover for 4 days. Cells were then plated as described below.
Chemical screening. For all screening experiments. 99 μL of cells were plated into each well of a 96-well clear flat-bottom, black polystyrene tissue-culture-treated plate (Corning 3904) at a density of ˜10+ cells/well. Plates were incubated overnight for adhesion. The day after plating. 1 μL of each compound, prepared as either a 1 mM stock solution in DMSO (10 μM final concentration screen) or 0.1 mM stock solution in DMSO (1 μM final concentration screen), was added to each well using an Agilent Bravo liquid handler. A built-in slow mixing step involving aspirating and dispensing was used to enhance distribution of the added compounds in solution. Cells were incubated for 3 days, after which resazurin (MilliporeSigma R^7017) was added to each well to a final concentration of 0.15 mM. After an additional 1 day of incubation, the fluorescence excitation/emission at 550/590 nm was read using a SpectraMaxR M3 plate reader and manufacturer software (SoftMax Pro R 6). Experiments were performed in biological duplicate.
Three-fold serial dilutions of compound were prepared in DMSO, then added to cell plates (final concentration of DMSO. 1%). Cell viability was then assayed as detailed above, and resazurin fluorescence values were linearly interpolated with respect to values from empty and positive control (non-treatment) wells. Experiments were performed in biological duplicate each on two independent occasions. When possible, chemical stocks from commercial suppliers were used: econazole nitrate (Cayman Chemical 20223), artenimol (Cayman Chemical 19846), and ABT-263 (Cayman Chemical 11500) were from Cayman Chemical, and dehydrodeguelin was aliquoted from the screening library.
Calculation of cellular viability values in dose-response curves. […] For each sample, the fluorescence intensity value was normalized by the mean of two untreated control values. Cellular viability values are therefore indicated as fractions of the cellular viability of untreated controls. Vehicle (1% DMSO) control values are included in each dose-response curve. Experiments were performed in biological duplicate each on two independent occasions.
Calculation of baseline cellular viability values. […] Additionally, baseline cellular viability values were calculated for untreated cells at the start of the experiment. Resazurin was added to a final concentration of 0.15 mM on the day of seeding (corresponding to day 0 in FIG. 7).

Row | SMILES | Therapeutic Index (TI)
1 | CCCCOc1ccc(NC(=O)CSc2nc3ccc(NC(=O)c4ccccc4)cc3s2)cc1 [compound 89] | ++ (compounds with a TI of 1 to 5 were labelled as ++)
2 | Cc1ccc(NC(=O)C(C)Sc2nc3ccc(NC(=O)c4ccc(Cl)cc4)cc3s2)cc1 (stereo not drawn) [compound 90] | ++ (compounds with a TI of 1 to 5 were labelled as ++)
3 | CCOc1ccc(C(=O)Nc2ccc3nc(SCC(N)=O)sc3c2)cc1 [compound 91] | ++ (compounds with a TI of 1 to 5 were labelled as ++)
4 | O=C(CSc1nc2ccc(NC(=O)c3cccc4ccccc34)cc2s1)Nc1ccccc1F [compound 92] | ++ (compounds with a TI of 1 to 5 were labelled as ++)
5 | Cc1ccccc1C(=O)Nc1ccc2nc(SCC(=O)NCCOc3ccccc3)sc2c1 [compound 93] | ++ (compounds with a TI of 1 to 5 were labelled as ++)
6 | CCOc1ccc(C(=O)Nc2ccc3nc(SCC(=O)Nc4ccc(C)cc4)sc3c2)cc1 [compound 94] | ++ (compounds with a TI of 1 to 5 were labelled as ++)
7 | Cc1cccc(NC(=O)CSc2nc3ccc(NC(=O)c4ccccc4Cl)cc3s2)c1C [compound 95] | ++ (compounds with a TI of 1 to 5 were labelled as ++)
8 | O=C(CSc1nc2ccc(NC(=O)c3ccccc3Cl)cc2s1)Nc1ccccc1 [compound 96] | ++ (compounds with a TI of 1 to 5 were labelled as ++)
9 | CCc1cccc(CC)c1NC(=O)CSc1nc2ccc(NC(=O)c3ccccc3)cc2s1 [compound 97] | ++ (compounds with a TI of 1 to 5 were labelled as ++)
10 | CC(C)(C)c1ccc(C(=O)Nc2ccc3nc(SCC(=O)Nc4ccccc4)sc3c2)cc1 [compound 98] | ++ (compounds with a TI of 1 to 5 were labelled as ++)
11 | Cc1ccc(NC(=O)CSc2nc3ccc(NC(=O)c4ccccc4C)cc3s2)c(C)c1 [compound 99] | ++ (compounds with a TI of 1 to 5 were labelled as ++)
12 | Cc1ccccc1C(=O)Nc1ccc2nc(SCC(=O)Nc3ccc(Cl)cc3)sc2c1 [compound 100] | ++ (compounds with a TI of 1 to 5 were labelled as ++)
13 | COc1ccc(NC(=O)CSc2nc3ccc(NC(=O)c4ccccc4OC)cc3s2)cc1 [compound 101] | ++ (compounds with a TI of 1 to 5 were labelled as ++)
14 | Cc1cccc(NC(=O)CSc2nc3ccc(NC(=O)c4cccc5ccccc45)cc3s2)c1C [compound 102] | ++ (compounds with a TI of 1 to 5 were labelled as ++)
15 | COc1ccc(C(=O)Nc2ccc3nc(SCC(=O)Nc4cc(C)cc(C)c4)sc3c2)cc1 [compound 103] | ++ (compounds with a TI of 1 to 5 were labelled as ++)
16 | COc1ccccc1C(=O)Nc1ccc2nc(SCC(=O)Nc3ccccc3)sc2c1 [compound 104] | ++ (compounds with a TI of 1 to 5 were labelled as ++)
17 | COC(=O)c1ccc(NC(=O)CSc2nc3ccc(NC(=O)c4ccccc4F)cc3s2)cc1 [compound 105] | ++ (compounds with a TI of 1 to 5 were labelled as ++)
18 | Cc1cccc(C(=O)Nc2ccc3nc(SCC(=O)Nc4ccccc4)sc3c2)c1 [compound 106] | ++ (compounds with a TI of 1 to 5 were labelled as ++)
19 | Cc1ccccc1C(=O)Nc1ccc2nc(SCC(=O)Nc3cccc(Cl)c3)sc2c1 [compound 107] | ++ (compounds with a TI of 1 to 5 were labelled as ++)
20 | COc1ccc(NC(=O)CSc2nc3ccc(NC(=O)c4cccc5ccccc45)cc3s2)cc1 [compound 108] | ++ (compounds with a TI of 1 to 5 were labelled as ++)
21 | CCCCOc1ccc(NC(=O)CSc2nc3ccc(NC(=O)c4ccccc4OC)cc3s2)cc1 [compound 109] | ++ (compounds with a TI of 1 to 5 were labelled as ++)

Row | SMILES | Therapeutic Index (TI)
22 | Cc1ccccc1C(=O)Nc1ccc2nc(SCC(=O)Nc3ccccc3Cl)sc2c1 [compound 110] | ++ (compounds with a TI of 1 to 5 were labelled as ++)
23 | COc1ccc(NC(=O)CSc2nc3ccc(NC(=O)c4ccc(Cl)cc4)cc3s2)cc1 [compound 111] | ++ (compounds with a TI of 1 to 5 were labelled as ++)
24 | COc1ccccc1C(=O)Nc1ccc2nc(SCC(=O)Nc3ccc(Cl)cc3)sc2c1 [compound 112] | ++ (compounds with a TI of 1 to 5 were labelled as ++)
25 | COc1ccc(C(=O)Nc2ccc3nc(SCC(=O)Nc4cc(Cl)ccc4C)sc3c2)cc1 [compound 113] | ++ (compounds with a TI of 1 to 5 were labelled as ++)
26 | CC(=O)c1ccc(NC(=O)CSc2nc3ccc(NC(=O)c4ccc(Cl)cc4)cc3s2)cc1 [compound 114] | ++ (compounds with a TI of 1 to 5 were labelled as ++)
27 | COc1ccc(NC(=O)CSc2nc3ccc(NC(=O)c4ccc(C)cc4)cc3s2)cc1 [compound 115] | ++ (compounds with a TI of 1 to 5 were labelled as ++)
28 | O=C(CSc1nc2ccc(NC(=O)c3ccccc3F)cc2s1)NC1CC1 [compound 116] | ++ (compounds with a TI of 1 to 5 were labelled as ++)
29 | COc1ccc(NC(=O)CSc2nc3ccc(NC(=O)c4ccc(C(C)(C)C)cc4)cc3s2)cc1 [compound 117] | ++ (compounds with a TI of 1 to 5 were labelled as ++)
30 | Cc1cc(C)cc(NC(=O)CSc2nc3ccc(NC(=O)c4ccccc4C)cc3s2)c1 [compound 118] | ++ (compounds with a TI of 1 to 5 were labelled as ++)
31 | CCOc1ccc(C(=O)Nc2ccc3nc(SCC(=O)Nc4ccccc4)sc3c2)cc1 [compound 119] | ++ (compounds with a TI of 1 to 5 were labelled as ++)
32 | CCOc1ccc(C(=O)Nc2ccc3nc(SCC(=O)Nc4ccc(F)cc4)sc3c2)cc1 [compound 120] | ++ (compounds with a TI of 1 to 5 were labelled as ++)
33 | Cc1ccccc1C(=O)Nc1ccc2nc(SCC(=O)Nc3ccc(Br)cc3)sc2c1 [compound 121] | ++ (compounds with a TI of 1 to 5 were labelled as ++)
34 | O=C(CSc1nc2ccc(NC(=O)c3ccc(F)cc3)cc2s1)Nc1ccccc1 [compound 122] | ++ (compounds with a TI of 1 to 5 were labelled as ++)
35 | CCc1ccc(NC(=O)CSc2nc3ccc(NC(=O)c4ccccc4OC)cc3s2)cc1 [compound 123] | ++ (compounds with a TI of 1 to 5 were labelled as ++)
36 | CCCCOc1ccc(C(=O)Nc2ccc3nc(SCC(=O)Nc4ccc(CC)cc4)sc3c2)cc1 [compound 124] | ++ (compounds with a TI of 1 to 5 were labelled as ++)
37 | Cc1ccccc1C(=O)Nc1ccc2nc(SCC(=O)N(C)c3ccccc3)sc2c1 [compound 125] | ++ (compounds with a TI of 1 to 5 were labelled as ++)
38 | CCCCOc1ccc(NC(=O)CSc2nc3ccc(NC(=O)c4cccc(C)c4)cc3s2)cc1 [compound 126] | ++ (compounds with a TI of 1 to 5 were labelled as ++)
39 | O=C(CSc1nc2ccc(NC(=O)c3ccccc3Br)cc2s1)Nc1ccccc1 [compound 127] | ++ (compounds with a TI of 1 to 5 were labelled as ++)
40 | O=C(CSc1nc2ccc(NC(=O)c3ccccc3)cc2s1)Nc1ccccc1C(F)(F)F [compound 128] | ++ (compounds with a TI of 1 to 5 were labelled as ++)
41 | CCCCOc1ccc(NC(=O)CSc2nc3ccc(NC(=O)c4ccc(Cl)cc4Cl)cc3s2)cc1 [compound 129] | ++ (compounds with a TI of 1 to 5 were labelled as ++)
42 | COc1ccccc1C(=O)Nc1ccc2nc(SCC(=O)Nc3ccccc3C)sc2c1 [compound 130] | ++ (compounds with a TI of 1 to 5 were labelled as ++)
